This note sets out measurements from US12589092B2, “Polycyclic compound acting as kinase inhibitor” (HANGZHOU INNOGATE PHARMA CO., LTD., priority 2020, dated 2026).

As a reminder, the IC50 is the concentration at which inhibition is half-maximal. What is called AUC(0-t) is exposure summed from dosing to a finite time, without extrapolation to infinity. For orientation: Cmax means the peak of the concentration-time curve. The term Tmax denotes the time at which the peak concentration occurs. Usually half-life stands for how long it takes for the measured level to halve. Read a high half-life as slow decline.

The target of series [1] is CDK2/CycA2 (Homo sapiens, UniProt P24941). Nature of the series: CDK2 kinase activity inhibition assay (caliper mobility shift). Format: biochemical. The conditions noted are these: CDK2/CycA2 12 nM, ATP 39 μM; read-out: CDK2 kinase inhibitory activity (IC50). On the procedure: (§1) 1) CDK2, CDK4 and CDK6 Kinase Activity Inhibition Assay
(§2) In vitro enzymatic activity of the CDK isoforms CDK2/CycA2, CDK4/CycD3 and CDK6/cycD3 were measured using caliper mobility shift assay. Dissolve the compounds in DMSO and dilute them with corresponding kinase buffer (CDK2/CycA2 and CDK6/CycD3 were assayed with buffer conditions of 50 mM HEPES (pH 7.5), 10 mM MgCl2, 0.0015% Brij-35 and 2 mM dithiothreitol; CDK4/CycD3 was assayed with buffer condition of 20 mM HEPES (pH 7.5), 10 mM MgCl2, 0.01% Triton X-100 and 2 mM dithiothreitol). Add 5 μl of compound (10% DMSO) with 5 times the final concentration of the reaction to a 384-well plate. […] Collect conversion data on Caliper EZ Reader II (Caliper Life Sciences). Convert the conversion rate into inhibition rate data (% inhibition rate=(max−conversion rate)/(max−min)*100). […] Draw a curve with the concentration and inhibition rate of the compound as abscissa and ordinate, and use XLFit excel add-in version 4.3.1 software to fit the curve and calculate IC50.

The target of series [2] is CDK4/CycD3 (Homo sapiens, UniProt P11802). Nature of the series: CDK4 kinase activity inhibition assay (caliper mobility shift). Format: biochemical. The conditions noted are these: CDK4/CycD3 10 nM, ATP 221 μM; read-out: CDK4 kinase inhibitory activity (IC50). On the procedure:
as §1, §2

Series [3] can be described thus: Pharmacokinetic study in rats (intragastrical administration, plasma LC-MS/MS). The conditions noted are these: male, SD, rat, po, 3 mg/kg.
Experimental: Instruments: XEVO TQ-S LC/MS instrument produced by Waters. All measurement data is collected and processed by Masslynx V4.1 software, and the data is calculated and processed by Microsoft Excel. Using WinNonLin 8.0 software, the statistical moment method was used to calculate the pharmacokinetic parameters. Mainly include kinetic parameters Tmax, T1/2, Cmax, AUClast etc. Column: ACQUITY UPLC BEH C18 (2.1 mm×50 mm, 1.7 μm); column temperature 40° C.; mobile phase A is water (0.1% formic acid), mobile phase B is acetonitrile, flow rate is 0.350 ml/min, gradient elution is adopted, the elution gradient is 0.50 min: 10% B; 1.50 min: 10% B; 2.30 min: 95% B; 2.31 min: 10% B; 3.00 min: stop. Injection volume: 5 μL.
Animals: 3 male SD rats with a weight range of 200-220 g. After purchase, they will be kept in the laboratory of the Experimental Animal Center for 2 days and then used. They will be fasted for 12 hours predose and 4 hours after dosing. Drinking water is free during the test. After the rats were gavage, blood samples were taken according to the established time point.
Solvent: 0.5% Methylcellulose (aqueous solution containing 0.4% Tween 80 and 1% ethanol). Preparation of the solution for intragastrical administration: accurately weigh the compound, add it to the solvent, and use ultrasound at room temperature for 5 minutes to completely dissolve the drug, and prepare a 0.3 mg/ml medicinal solution.
A single administration was also used to study the pharmacokinetics of the drug sample in rats.
After intragastrical administration, blood was taken from the orbit at 0.25, 0.5, 1, 2, 4, 9, 12 and 24 hours, and placed in a plastic centrifuge tube pretreated with sodium heparin. After centrifugation, the supernatant plasma was used for LC-MS/MS analysis.
Accurately weigh the compounds to prepare different concentrations, perform quantitative analysis on mass spectrometry to establish a standard curve, and then test the concentration of the above-mentioned compound in the plasma to obtain the compound concentration at different time points. All measurement data are collected and processed by relevant software, and the statistical moment method is used to calculate the pharmacokinetic parameters (mainly including kinetic parameters Tmax, T1/2, Cmax, AUClast etc).
For series [4], the target named is CDK6/cycD3 (Homo sapiens, UniProt Q00534). Nature of the series: CDK6 kinase activity inhibition assay (caliper mobility shift). The conditions noted are these: CDK6/cycD3 15 nM, ATP 800 μM; read-out: CDK6 kinase inhibitory activity (IC50). Format: biochemical. As to the method: as §1, §2
Chain of CDK6/cycD3 (Q00534 whole entry): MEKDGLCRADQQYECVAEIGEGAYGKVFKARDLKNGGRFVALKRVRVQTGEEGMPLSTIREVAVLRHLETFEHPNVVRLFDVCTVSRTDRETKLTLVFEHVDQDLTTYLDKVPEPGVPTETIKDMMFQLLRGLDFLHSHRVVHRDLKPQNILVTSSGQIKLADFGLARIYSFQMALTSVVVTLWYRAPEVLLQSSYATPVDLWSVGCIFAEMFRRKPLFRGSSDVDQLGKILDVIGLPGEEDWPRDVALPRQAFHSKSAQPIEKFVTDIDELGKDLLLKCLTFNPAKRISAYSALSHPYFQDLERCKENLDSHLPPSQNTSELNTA
Chain of CDK6/cycD3 (P30281 whole entry partner): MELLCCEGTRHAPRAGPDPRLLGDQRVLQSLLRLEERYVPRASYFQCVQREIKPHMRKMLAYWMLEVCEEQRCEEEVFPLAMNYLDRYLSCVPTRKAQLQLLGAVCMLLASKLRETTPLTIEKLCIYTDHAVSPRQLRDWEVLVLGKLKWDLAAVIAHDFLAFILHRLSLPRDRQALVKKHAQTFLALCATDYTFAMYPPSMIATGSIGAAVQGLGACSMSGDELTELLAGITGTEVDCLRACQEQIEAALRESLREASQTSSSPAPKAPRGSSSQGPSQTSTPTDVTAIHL

Chain of CDK4/CycD3 (P11802 whole entry): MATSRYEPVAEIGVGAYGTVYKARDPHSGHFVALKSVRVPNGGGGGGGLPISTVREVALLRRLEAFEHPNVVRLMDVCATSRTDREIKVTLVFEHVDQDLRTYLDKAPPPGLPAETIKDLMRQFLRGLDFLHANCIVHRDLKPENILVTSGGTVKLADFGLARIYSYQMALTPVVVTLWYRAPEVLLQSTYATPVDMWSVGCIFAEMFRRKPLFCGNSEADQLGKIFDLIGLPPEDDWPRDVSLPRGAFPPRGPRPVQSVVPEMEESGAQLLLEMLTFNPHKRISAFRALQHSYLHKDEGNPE
Chain of CDK4/CycD3 (P30281 whole entry partner): as the sequence (P30281 whole entry partner) above

As to `CC(=O)c1c(C)c2cnc(Nc3ccc4c(c3)OC[C@@H]3CN(C5CCOCC5)CCN43)nc2n(C2CCCC2)c1=O` [Compound 1S], in series [1], the IC50 was under 100 nM. In addition, the IC50 in series [2] was under 10 nM. In series [3], the AUC(0-t) came to 192 ng·h/mL, the highest level (Cmax) was 37.3 ng/mL, the Tmax was 3 h and the half-life was 6.41 h. In addition, the IC50 in series [4] was under 20 nM.

As to `CC(=O)c1c(C)c2cnc(Nc3ccc4c(c3)OC[C@H]3CN(C5CCNCC5)CCN43)nc2n(C2CCCC2)c1=O` [Compound 3R], the IC50 was under 100 nM in series [1], under 10 nM in series [2] and under 10 nM in series [4].

In the case of `CC(=O)c1c(C)c2cnc(Nc3ccc4c(c3)OC[C@@H]3CN(C5CCN(C(C)=O)CC5)CCN43)nc2n(C2CCCC2)c1=O` [Compound 5S], the IC50 in series [1] is under 100 nM. In series [2], the IC50 is under 10 nM. Also, in series [3], the area under the curve AUC(0-t) was determined as 2480 ng·h/mL, the concentration peaked (Cmax) at 266 ng/mL, the Tmax worked out at 6 h and the half-life was 2.18 h. Also, the IC50 in series [4] is under 10 nM.

Take `CC(=O)c1c(C)c2cnc(Nc3ccc4c(c3)OC[C@@H]3CN(C5CCN(C6CC6)CC5)CCN43)nc2n(C2CCCC2)c1=O` [Compound 6S]: the IC50 in series [1] was under 100 nM. Besides, the IC50 in series [2] was under 10 nM. Further, in series [3], the AUC(0-t) turned out to be 662 ng·h/mL, the Cmax was 54.9 ng/mL, the Tmax turned out to be 6.67 h and the half-life is 4.31 h. Besides, the IC50 in series [4] is under 10 nM.

Turning to `CC(=O)c1c(C)c2cnc(Nc3cc(C)c4c(c3)OC[C@@H]3CN(C5CCN(C)CC5)CCN43)nc2n(C2CCCC2)c1=O` [Compound 8S], the results for the IC50 in series [1], in series [2] and in series [4] were under 500 nM, under 20 nM and under 100 nM, respectively.

`CC(=O)c1c(C)c2cnc(Nc3cc(F)c4c(c3)OC[C@@H]3CN(C5CCN(C)CC5)CCN43)nc2n(C2CCCC2)c1=O` [Compound 9S]: in series [1], the IC50 is under 500 nM. Moreover, the IC50 in series [2] is under 10 nM. In addition, in series [3], the AUC(0-t) stood at 697 ng·h/mL, the highest level (Cmax) was 42.5 ng/mL, the Tmax was 12 h and the half-life was 15.6 h. Also, in series [4], the IC50 was under 50 nM.

Take `CC(=O)c1c(C)c2cnc(Nc3ccc4c(c3)OC[C@@H]3CN(C5CN(C6CC6)C5)CCN43)nc2n(C2CCCC2)c1=O` [Compound 12S]: the IC50 in series [1] is under 100 nM; in series [2], under 10 nM; in series [4], under 10 nM.

In the case of `CC(=O)c1c(C)c2cnc(Nc3ccc4c(c3)OC[C@@H]3CN(C5CCN(CC(F)(F)F)CC5)CCN43)nc2n(C2CCCC2)c1=O` [Compound 16S], the 50% inhibitory concentration (IC50) in series [1] is under 500 nM; in series [2], under 10 nM.

`CC(=O)c1c(C)c2cnc(Nc3ccc4c(c3)OC[C@@H]3CN(C5CCN(CC#N)CC5)CCN43)nc2n(C2CCCC2)c1=O` [Compound 17S]: the IC50 is under 100 nM in series [1] and under 10 nM in series [2].

`CC(=O)c1c(C)c2cnc(Nc3ccc4c(c3)OC[C@@H]3CN(C5CCC5)CCN43)nc2n(C2CCCC2)c1=O` [Compound 18S]: the values for the IC50 in series [1] and in series [2] were under 500 nM and under 10 nM, respectively.

In the case of `CC(=O)c1c(C)c2cnc(Nc3ccc4c(c3)N3CCN(C5CCN(C)CC5)C[C@H]3CO4)nc2n(C2CCCC2)c1=O` [Compound 19S], the IC50 in series [1] was under 500 nM; in series [2], under 100 nM.

As for `CC(=O)c1c(C)c2cnc(Nc3ccc4c(c3)N3CCN(C5CCNCC5)C[C@H]3CO4)nc2n(C2CCCC2)c1=O` [Compound 20S], the IC50 in series [1] was under 500 nM.

Regarding `CC(=O)c1c(C)c2cnc(Nc3ccc4c(c3)N3CCN(C5CCN(C(C)=O)CC5)C[C@H]3CO4)nc2n(C2CCCC2)c1=O` [Compound 21S], the IC50 in series [1] is under 500 nM.

For the compound `CC(=O)c1c(C)c2cnc(Nc3ccc4c(c3)OCC3CNCCN43)nc2n(C2CCCC2)c1=O` (stereo not drawn) [Ref-B, reference compound], in series [3], the AUC(0-t) came out at 108 ng·h/mL, the concentration peaked (Cmax) at 13.9 ng/mL, the Tmax came out at 3.33 h and the half-life is 6.71 h.
